In the assay the test system is human gastric cancer cell line SGC7901. The experiment in a line: CCK-8 in vitro cytotoxicity test, SGC7901. Format: cell-based. The conditions noted are these: read-out: IC50 (nM) SGC7901; CCK-8, 72 h exposure, n = 3.

For `N.N.[Cl][Pt][Cl]` [cisplatin], the 50% inhibitory concentration (IC50) stood at 927 ± 77.6 nM.

These data come from paper PMC9134009 (RSC Advances, 2021).
